Molecules are shown by their SMILES.

Broadly, the melting point is the temperature, or range, at which the solid turns liquid. In the case of `O=C(Nc1ccccc1)Oc1ccc(C2(c3ccc(OC(=O)Nc4ccccc4)cc3)C(=O)Nc3c2ccc(F)c3F)cc1`, the melting point lay within 163 to 165 °C.

`O=C1N(CCO)c2c(ccc(F)c2F)C1(c1ccc(O)cc1)c1ccc(F)cc1` (stereo not drawn) [Compound 1007, 6,7-Difluoro-3-(4-fluorophenyl)-1-(2-hydroxyethyl)-3-(4-hydroxyphenyl)-1,3-dihydro-2H-indol-2-one] returned a melting point of 80 to 83 °C. With `O=C(CCN1CCOCC1)Oc1ccc(C2(c3ccc(F)cc3)C(=O)Nc3c2ccc(F)c3F)cc1` (stereo not drawn) [Compound 1009, 4-[6,7-Difluoro-3-(4-fluorophenyl)-2-oxo-2,3-dihydro-1H-indol-3-yl]phenyl 3-morpholinopropanoate] the figure was 174 to 175 °C; with `CN1CCN(CCC(=O)Oc2ccc(C3(c4ccc(F)cc4)C(=O)Nc4c3ccc(F)c4F)cc2)CC1` (stereo not drawn) [Compound 1010, 4-[6,7-Difluoro-3-(4-fluorophenyl)-2-oxo-2,3-dihydro-1H-indol-3-yl]phenyl 3-(4-methylpiperazino)propanoate], 149 to 151 °C. With `COc1ccc(C2(c3ccc(OCOC(=O)OC(C)C)cc3)C(=O)N(COC(=O)OC(C)C)c3ccccc32)cc1` (stereo not drawn) [Compound 1011, [3-(4-{[(Isopropoxycarbonyl)oxy]methoxy}phenyl)-3-(4-methoxyphenyl)-2-oxo-2,3-dihydro-1H-indol-1-yl]methyl isopropyl carbonate] the figure was 63 to 65 °C; with `C=CC(=O)Oc1ccc(C2(c3ccc(F)cc3)C(=O)Nc3c2ccc(F)c3C)cc1` (stereo not drawn) [Compound 1016, 4-[6-Fluoro-3-(4-fluorophenyl)-7-methyl-2-oxo-2,3-dihydro-1H-indol-3-yl]phenyl acrylate], 223 to 225 °C.
